Values of other authors, collected in article PMC8463262 (Acta Pharmaceutica Sinica. B, 2020).

System: PRMT5
Conditions: read-out: IC50 PRMT5

IC50: 6 µM
Compound: CCNC(=O)NCCSC[C@H]1O[C@@H](n2cnc3c(N)ncnc32)[C@H](O)[C@@H]1O [DS437]
